ChEMBL document CHEMBL1201862, “PubChem BioAssay data set” (2004)
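In this assay, cells in 96-well plates receive the compound at five concentrations for 48 hours. Endpoints are linearly interpolated between the surrounding concentrations. At the GI50, growth is halved.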 The source made the active and inactive calls. Cut-off read from the data, not from the text of the source: active = GI50 up to about 1.1 µM and inactive = higher.

Legend:
Experiment in all cases: inhibition of tumour cell growth, NCI panel, 48 h
U-251 = tested on: U-251
KM12 = tested on: KM12
IGROV-1 = tested on: IGROV-1
HCT-15 = tested on: HCT-15
SK-MEL-5 = tested on: SK-MEL-5
K562 = tested on: K562
SNB-75 = tested on: SNB-75
SW-620 = tested on: SW-620
ACHN = tested on: ACHN
SF-539 = tested on: SF-539
NCI-H460 = tested on: NCI-H460
HT-29 = tested on: HT-29
SNB-19 = tested on: SNB-19
SN12C = tested on: SN12C
COLO 205 = tested on: COLO 205
OVCAR-8 = tested on: OVCAR-8
OVCAR-3 = tested on: OVCAR-3
786-0 = tested on: 786-0
SK-OV-3 = tested on: SK-OV-3
NCI-H23 = tested on: NCI-H23

SMILES | GI50 (U-251) | GI50 (KM12) | GI50 (IGROV-1) | GI50 (HCT-15) [µM] | GI50 (SK-MEL-5) | GI50 (K562) | GI50 (SNB-75) | GI50 (SW-620) | GI50 (ACHN) | GI50 (SF-539) | GI50 (NCI-H460) | GI50 (HT-29) | GI50 (SNB-19) | GI50 (SN12C) | GI50 (COLO 205) | GI50 (OVCAR-8) | GI50 (OVCAR-3) | GI50 (786-0) | GI50 (SK-OV-3) | GI50 (NCI-H23)
O=C1OC2(c3ccc(O)cc3Oc3cc(O)ccc32)c2c1c(-c1ccccc1)c(-c1ccccc1)c(-c1ccccc1)c2-c1ccccc1 | 17.7 µM (inactive) | 17.1 µM (inactive) | 19.1 µM (inactive) | 18.7 | 27.7 µM (inactive) | 29.6 µM (inactive) | 18.7 µM (inactive) | 20.9 µM (inactive) | 19.9 µM (inactive) | 22.9 µM (inactive) | 17.7 µM (inactive) | 18.7 µM (inactive) | 18.7 µM (inactive) | 25.1 µM (inactive) | 19.3 µM (inactive) | 22.4 µM (inactive) | 34.5 µM (inactive) | 27.7 µM (inactive) | 39 µM (inactive) | 
O=C(O)CCC1(c2ccccc2)NC(=O)NC1=O (stereo not drawn) | > 100 µM (inactive) | > 100 µM (inactive) | > 100 µM (inactive) | > 100 | > 100 µM (inactive) | > 100 µM (inactive) | > 100 µM (inactive) | > 100 µM (inactive) | > 100 µM (inactive) | > 100 µM (inactive) | > 100 µM (inactive) | > 100 µM (inactive) |  | > 100 µM (inactive) | > 100 µM (inactive) | > 100 µM (inactive) | > 100 µM (inactive) | > 100 µM (inactive) | > 100 µM (inactive) | > 100 µM (inactive)
COC(=O)C(C(=O)C(=O)NC1Nc2ccc(C)cc2S1)c1nc2ccc(Cl)cc2nc1O (stereo not drawn) | > 100 µM (inactive) | > 100 µM (inactive) | 40.6 µM (inactive) | > 100 | > 100 µM (inactive) | > 100 µM (inactive) | > 100 µM (inactive) | > 100 µM (inactive) | > 100 µM (inactive) | > 100 µM (inactive) | > 100 µM (inactive) | > 100 µM (inactive) | 96.4 µM (inactive) | > 100 µM (inactive) |  | > 100 µM (inactive) | > 100 µM (inactive) | > 100 µM (inactive) | > 100 µM (inactive) | > 100 µM (inactive)
CC(=O)Nc1ccc(-c2nnc(SCC(=O)Nc3ccccc3)o2)cc1 | 43.7 µM (inactive) | 65 µM (inactive) | 47.6 µM (inactive) | 92 | 69 µM (inactive) | > 100 µM (inactive) | > 100 µM (inactive) | > 100 µM (inactive) | > 100 µM (inactive) | 71.1 µM (inactive) | > 100 µM (inactive) | 60.5 µM (inactive) |  | 90.4 µM (inactive) | > 100 µM (inactive) | > 100 µM (inactive) | > 100 µM (inactive) | > 100 µM (inactive) | > 100 µM (inactive) | 39.5 µM (inactive)
CC1(C)OC(C(N)=O)=C(C(N)=O)O1 | > 100 µM (inactive) | > 100 µM (inactive) | > 100 µM (inactive) | > 100 |  | > 100 µM (inactive) | > 100 µM (inactive) | > 100 µM (inactive) | > 100 µM (inactive) | > 100 µM (inactive) | > 100 µM (inactive) | > 100 µM (inactive) | > 100 µM (inactive) | > 100 µM (inactive) | > 100 µM (inactive) | > 100 µM (inactive) | > 100 µM (inactive) | > 100 µM (inactive) | > 100 µM (inactive) | > 100 µM (inactive)
O[C@@H]1CCC[C@@H]2NC[C@@H](c3ccc4c(c3)OCO4)[C@H]12 | > 100 µM (inactive) | > 100 µM (inactive) | > 100 µM (inactive) | > 100 | > 100 µM (inactive) | > 100 µM (inactive) | > 100 µM (inactive) | > 100 µM (inactive) | > 100 µM (inactive) | > 100 µM (inactive) | > 100 µM (inactive) | > 100 µM (inactive) | > 100 µM (inactive) |  | > 100 µM (inactive) | > 100 µM (inactive) | > 100 µM (inactive) | > 100 µM (inactive) | > 100 µM (inactive) | > 100 µM (inactive)
CCN(CC)CCCNc1nncc2c(C)c3[nH]c4ccccc4c3cc12 | 0.605 µM (active) | 0.667 µM (active) | 0.617 µM (active) | 7.57 | 1.99 µM (inactive) |  | 1.41 µM (inactive) |  | 0.914 µM (active) | 1.12 µM (inactive) | 0.281 µM (active) | 0.258 µM (active) | 0.644 µM (active) | 0.292 µM (active) | 0.653 µM (active) | 0.685 µM (active) | 1.03 µM (active) | 0.667 µM (active) | 0.989 µM (active) | 0.743 µM (active)
O=P(c1ccccc1)(c1ccccc1)C1CC=C(c2ccccc2)C2(CCCC2)C1 (stereo not drawn) | 94 µM (inactive) | 40.4 µM (inactive) | 42.7 µM (inactive) | 36.1 | 71.8 µM (inactive) | 31.4 µM (inactive) | 30.7 µM (inactive) | 81.3 µM (inactive) |  | > 100 µM (inactive) | 59.2 µM (inactive) | 59.2 µM (inactive) | 48.6 µM (inactive) | 59.7 µM (inactive) | 22.8 µM (inactive) | 83.4 µM (inactive) | 49.1 µM (inactive) | 98.9 µM (inactive) | > 100 µM (inactive) | 9.44 µM (inactive)
c1c(N2CCOCC2)s[s+]c1N1CCOCC1 | > 100 µM (inactive) | > 100 µM (inactive) | > 100 µM (inactive) | > 100 | > 100 µM (inactive) | > 100 µM (inactive) | > 100 µM (inactive) | > 100 µM (inactive) | > 100 µM (inactive) | > 100 µM (inactive) | > 100 µM (inactive) | > 100 µM (inactive) | > 100 µM (inactive) | > 100 µM (inactive) |  | > 100 µM (inactive) |  | > 100 µM (inactive) | > 100 µM (inactive) | > 100 µM (inactive)
COc1ccc(C(=O)C(C(=O)C(=O)NCCCNC(=O)C(=O)C(C(=O)c2ccc(OC)cc2)c2ccc(OC)cc2)c2ccc(OC)cc2)cc1 (stereo not drawn) | > 100 µM (inactive) | > 100 µM (inactive) | > 100 µM (inactive) | > 100 |  | > 100 µM (inactive) | > 100 µM (inactive) | > 100 µM (inactive) |  | > 100 µM (inactive) | > 100 µM (inactive) | > 100 µM (inactive) | > 100 µM (inactive) |  | > 100 µM (inactive) | > 100 µM (inactive) | > 100 µM (inactive) | > 100 µM (inactive) | > 100 µM (inactive) | > 100 µM (inactive)
O=C(N/N=C(COc1ccccc1Cl)\N=C\c1cccnc1)c1ccncc1 | > 100 µM (inactive) | > 100 µM (inactive) | > 100 µM (inactive) | > 100 |  | > 100 µM (inactive) | > 100 µM (inactive) | > 100 µM (inactive) | > 100 µM (inactive) | > 100 µM (inactive) | > 100 µM (inactive) | > 100 µM (inactive) | > 100 µM (inactive) | > 100 µM (inactive) | > 100 µM (inactive) | > 100 µM (inactive) | > 100 µM (inactive) | > 100 µM (inactive) | > 100 µM (inactive) | > 100 µM (inactive)
O=C1OC(c2ccccc2)=N/C1=C\c1cn[nH]n1 | > 100 µM (inactive) | > 100 µM (inactive) | > 100 µM (inactive) | > 100 |  | > 100 µM (inactive) | > 100 µM (inactive) | > 100 µM (inactive) | > 100 µM (inactive) | 70.1 µM (inactive) | > 100 µM (inactive) | > 100 µM (inactive) | > 100 µM (inactive) | > 100 µM (inactive) | > 100 µM (inactive) | > 100 µM (inactive) | > 100 µM (inactive) | > 100 µM (inactive) | > 100 µM (inactive) | > 100 µM (inactive)
C/C=C1/C(=Cc2[nH]c(C=c3[nH]/c(=C/C4=NC(=O)C(CC)=C4C)c(C)c3CCC(=O)O)c(CCC(=O)O)c2C)NC(=O)C1C (stereo not drawn) | 7.48 µM (inactive) | 10.8 µM (inactive) | 3.38 µM (inactive) | 2.58 |  | 2.21 µM (inactive) | 4.79 µM (inactive) | 2.96 µM (inactive) | 13.7 µM (inactive) | 6.4 µM (inactive) | 13 µM (inactive) | 5.11 µM (inactive) | > 50 µM (inactive) | 3.3 µM (inactive) | 18.1 µM (inactive) | 4.13 µM (inactive) | 27.5 µM (inactive) | 2.41 µM (inactive) | 42.1 µM (inactive) | 21.5 µM (inactive)
COc1cc(/C=C2\CCc3ccccc3C2=O)ccc1O | 16.9 µM (inactive) | 16.3 µM (inactive) | 34.3 µM (inactive) | 22.4 | 17.7 µM (inactive) | 16.8 µM (inactive) | 28.5 µM (inactive) | 16.1 µM (inactive) | 26.4 µM (inactive) | 16.1 µM (inactive) | 17.3 µM (inactive) | 18.2 µM (inactive) | 14.6 µM (inactive) | 22.4 µM (inactive) |  | 19.1 µM (inactive) | 19.6 µM (inactive) | 13.7 µM (inactive) | 26 µM (inactive) | 23 µM (inactive)
CC(=O)N[C@@H]1C(O)CN2C(=O)C(=O)O[C@H](C(O)CO)[C@@H]12 (stereo partly drawn) | > 100 µM (inactive) | > 100 µM (inactive) | > 100 µM (inactive) |  |  | > 100 µM (inactive) | > 100 µM (inactive) | > 100 µM (inactive) | > 100 µM (inactive) | > 100 µM (inactive) | > 100 µM (inactive) | > 100 µM (inactive) | > 100 µM (inactive) |  | > 100 µM (inactive) | > 100 µM (inactive) | > 100 µM (inactive) | > 100 µM (inactive) | > 100 µM (inactive) | 
